The experiment deals with BDF1 mice, P388 leukemia ip, median survival T/C. Kind of experiment: NCI In Vivo Anticancer Drug Screen. Data for tumor model P388 Leukemia (intraperitoneal) in B6D2F1 (BDF1) mice. Particulars: endpoint: median survival time, higher = longer survival. An outline of the steps: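 Antitumour effect was judged in vivo: survival in drug-treated mice, normalised to that of vehicle-dosed controls, gives the reported T/C.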

The mark [1] stands for this setting: dose: 25.0 mg/kg/injection, schedule: Q04DX003 (ip), vehicle: saline with Tween-80.
[2] abbreviates: dose: 50.0 mg/kg/injection, schedule: Q04DX003 (ip), vehicle: saline with Tween-80.
Setting [3] is: dose: 100.0 mg/kg/injection, schedule: Q04DX003 (ip), vehicle: saline.
Setting [4] is: dose: 200.0 mg/kg/injection, schedule: Q04DX003 (ip), vehicle: saline.
Where [5] appears, read: dose: 50.0 mg/kg/injection, schedule: Q01DX009 (ip), vehicle: saline with Tween-80.
Where [6] appears, read: dose: 100.0 mg/kg/injection, schedule: Q01DX009 (ip), vehicle: saline with Tween-80.
Setting [7] is: dose: 200.0 mg/kg/injection, schedule: Q01DX009 (ip), vehicle: saline with Tween-80.
[8] abbreviates: dose: 100.0 mg/kg/injection, schedule: Q04DX003 (ip), vehicle: saline with Tween-80.
Where [9] appears, read: dose: 200.0 mg/kg/injection, schedule: Q04DX003 (ip), vehicle: saline with Tween-80.
[10] abbreviates: dose: 100.0 mg/kg/injection, schedule: Q04DX003 (ip), vehicle: Klucel (hydroxypropylcellulose) (HPC).
The mark [11] stands for this setting: dose: 200.0 mg/kg/injection, schedule: Q04DX003 (ip), vehicle: Klucel (hydroxypropylcellulose) (HPC).
Setting [12] is: dose: 400.0 mg/kg/injection, schedule: Q04DX003 (ip), vehicle: Klucel (hydroxypropylcellulose) (HPC).
The mark [13] stands for this setting: dose: 50.0 mg/kg/injection, schedule: Q01DX010 (ip), vehicle: saline.
Setting [14] is: dose: 100.0 mg/kg/injection, schedule: Q01DX010 (ip), vehicle: saline.
Setting [15] is: dose: 200.0 mg/kg/injection, schedule: Q01DX010 (ip), vehicle: saline.
The mark [16] stands for this setting: dose: 400.0 mg/kg/injection, schedule: Q01DX010 (ip), vehicle: saline.

Where “and” joins values, the source holds several entries; their conditions need not be identical. Equal entries are not always repeated. Toxic doses and inconclusive results are not listed.

We go through 19 compounds from PubChem BioAssay AID328 (DTP/NCI, 2004).

In the case of `C[N+](C)(C)Cc1ccccc1`, the T/C was 95 % of control under setting [1] and 112 % of control under setting [2].

For the compound `CCN=C1N[N+]2=CCCCC2S1` (centres undefined), the T/C reads like this: (dose: 35.0 mg/kg/injection, schedule: Q01DX009 (ip), vehicle: saline) 111 % of control; (dose: 140.0 mg/kg/injection, schedule: Q01DX009 (ip), vehicle: saline) 95 % of control.

In the case of `CCNC(C)(C)C(=O)c1ccco1`, the T/C is, setting by setting: under setting [3], 100 % of control; under setting [4], 100 % of control.

In the case of `N#CCCN(C(=O)Nc1ccc(Cl)c(Cl)c1)C1CCCCC1`, the T/C by setting is: under setting [5], 124 % of control; under setting [6], 104 % of control; under setting [7], 94 % of control; (dose: 400.0 mg/kg/injection, schedule: Q01DX009 (ip), vehicle: saline with Tween-80) 97 % of control.

In the case of `C=CCO`, the T/C runs as follows: (dose: 12.5 mg/kg/injection, schedule: Q01DX001 (ip), vehicle: saline with Tween-80) 95 % of control; (dose: 25.0 mg/kg/injection, schedule: Q01DX001 (ip), vehicle: saline with Tween-80) 104 % of control; (dose: 50.0 mg/kg/injection, schedule: Q01DX001 (ip), vehicle: saline with Tween-80) 100 % of control.

In the case of `Nc1ccc2c(-c3cccc([N+](=O)[O-])c3)cc(=O)[nH]c2n1`, the T/C by setting is: under setting [3], 88 % of control; under setting [4], 87 % of control; (dose: 400.0 mg/kg/injection, schedule: Q04DX003 (ip), vehicle: saline) 87 % of control.

Turning to `CC(=O)Cc1ccc(C(=O)C(C)Cc2ccc(C(C)=O)cc2)cc1` (centres undefined), the T/C reads like this: under setting [8], 100 % of control; under setting [9], 90 % of control; (dose: 400.0 mg/kg/injection, schedule: Q04DX003 (ip), vehicle: saline with Tween-80) 90 % of control.

As for `O=C(c1ccccc1)N1C=CN(C(=O)c2ccccc2)C1c1ncc[nH]1`, the T/C is 105 % of control under setting [5], 105 % of control under setting [6] and 106 % of control under setting [7].

Regarding `CC[C@H](CC[C@@H](C)[C@H]1CC[C@H]2[C@@H]3CC=C4C[C@@H](O)CC[C@]4(C)[C@H]3CC[C@]12C)C(C)C`, the T/C is 100 % of control under setting [10], 86 % of control under setting [11] and 100 % of control under setting [12].

For `COC(=O)C(Br)c1cccc(OC)c1` (centres undefined), the T/C was 100 % of control (dose: 58.5 mg/kg/injection, schedule: Q01DX009 (ip), vehicle: saline with Tween-80); 100 % of control (dose: 88.0 mg/kg/injection, schedule: Q01DX009 (ip), vehicle: saline with Tween-80); 90 % of control (dose: 132.0 mg/kg/injection, schedule: Q01DX009 (ip), vehicle: saline with Tween-80); 100 % of control and 120 % of control under setting [7].

With `Cc1nnc(NS(=O)(=O)c2ccc(N=Nc3nc4[nH]c(N)nc(=S)c4[nH]3)cc2)s1`, the T/C by setting is: (dose: 5.5 mg/kg/injection, schedule: Q01DX009 (ip), vehicle: saline) 114 % of control; (dose: 12.5 mg/kg/injection, schedule: Q04DX003 (ip), vehicle: Klucel (hydroxypropylcellulose) (HPC)) 95 % of control; (dose: 25.0 mg/kg/injection, schedule: Q04DX003 (ip), vehicle: Klucel (hydroxypropylcellulose) (HPC)) 104 % of control; (dose: 50.0 mg/kg/injection, schedule: Q04DX003 (ip), vehicle: Klucel (hydroxypropylcellulose) (HPC)) 100 % of control; (dose: 80.0 mg/kg/injection, schedule: Q01DX009 (ip), vehicle: Klucel (hydroxypropylcellulose) (HPC)) 155 % of control; (dose: 170.0 mg/kg/injection, schedule: Q01DX009 (ip), vehicle: saline) 172 % of control.

`O=[n+]1c2c(n([O-])c3ccccc31)-c1cccc3cccc-2c13`: the T/C runs as follows: (dose: 25.0 mg/kg/injection, schedule: Q01DX010 (ip), vehicle: saline) 95 % of control; under setting [13], 91 % of control; under setting [14], 91 % of control.

Take `CCCOC(=O)/C=C(\Br)C(=O)OCCC`: the T/C was 108 % of control (dose: 12.5 mg/kg/injection, schedule: Q04DX003 (ip), vehicle: saline with Tween-80); 110 % of control under setting [1]; 95 % of control under setting [2].

Turning to `Cc1cc(Cl)ccc1NC(=O)c1ccccc1C(=O)O`, the T/C runs as follows: under setting [10], 91 % of control; under setting [11], 91 % of control; under setting [12], 87 % of control.

As to `COc1ccccc1NC(=S)N(C)C`, the T/C is 100 % of control under setting [5]; 113 % of control under setting [2]; 105 % of control under setting [6]; 109 % of control under setting [8]; 110 % of control under setting [7]; 104 % of control under setting [9].

Take `[NH-]CC[S-].[NH-]CC[S-].[NH-]CC[S-].[NH-]CC[S-].[Ni+2].[Ni+2].[Ni]`: the T/C (dose: 2.0 mg/kg/injection, schedule: Q01DX009 (ip), vehicle: saline) was 105 % of control; the T/C (dose: 3.12 mg/kg/injection, schedule: Q04DX003 (ip), vehicle: saline) was 100 % of control; the T/C (dose: 4.0 mg/kg/injection, schedule: Q01DX009 (ip), vehicle: saline) was 100 % of control; the T/C (dose: 8.0 mg/kg/injection, schedule: Q01DX009 (ip), vehicle: saline) was 98 % of control; the T/C (dose: 16.0 mg/kg/injection, schedule: Q01DX009 (ip), vehicle: saline) is 87 % of control and 117 % of control.

Take `Cc1cc(=O)[nH]c(N/N=C/c2ccccc2O)n1`: the T/C runs as follows: under setting [15], 90 % of control; (dose: 300.0 mg/kg/injection, schedule: Q01DX010 (ip), vehicle: saline) 95 % of control; under setting [16], 95 % of control; (dose: 500.0 mg/kg/injection, schedule: Q01DX010 (ip), vehicle: saline) 95 % of control.

Regarding `c1ccc2c(c1)Cc1nc3ccccc3nc1-2`, the T/C (dose: 3.12 mg/kg/injection, schedule: Q01DX009 (ip), vehicle: water) is 87 % of control; the T/C (dose: 6.25 mg/kg/injection, schedule: Q01DX009 (ip), vehicle: water) was 101 % of control and 110 % of control; the T/C (dose: 12.5 mg/kg/injection, schedule: Q01DX009 (ip), vehicle: water) was 87 % of control and 110 % of control; the T/C (dose: 25.0 mg/kg/injection, schedule: Q01DX009 (ip), vehicle: water) is 93 % of control and 106 % of control and 114 % of control; the T/C (dose: 25.0 mg/kg/injection, schedule: Q04DX003 (ip), vehicle: water) was 116 % of control; the T/C (dose: 50.0 mg/kg/injection, schedule: Q01DX009 (ip), vehicle: water) is 89 % of control and 95 % of control. For the same compound, the T/C by setting is: (dose: 50.0 mg/kg/injection, schedule: Q04DX003 (ip), vehicle: water) 102 % of control; (dose: 100.0 mg/kg/injection, schedule: Q01DX009 (ip), vehicle: water) 87 % of control and 110 % of control; (dose: 100.0 mg/kg/injection, schedule: Q04DX003 (ip), vehicle: water) 103 % of control; (dose: 200.0 mg/kg/injection, schedule: Q01DX009 (ip), vehicle: water) 98 % of control; (dose: 200.0 mg/kg/injection, schedule: Q04DX003 (ip), vehicle: water) 104 % of control; (dose: 400.0 mg/kg/injection, schedule: Q01DX009 (ip), vehicle: water) 104 % of control. Besides, the T/C (dose: 400.0 mg/kg/injection, schedule: Q04DX003 (ip), vehicle: water) is 113 % of control.

For `c1ccc2cc(-c3cc4ccccc4s3)ccc2c1`, the T/C is 95 % of control under setting [13]; 120 % of control (dose: 100.0 mg/kg/injection, schedule: Q01DX009 (ip), vehicle: Klucel (hydroxypropylcellulose) (HPC)); 100 % of control under setting [14]; 120 % of control (dose: 200.0 mg/kg/injection, schedule: Q01DX009 (ip), vehicle: Klucel (hydroxypropylcellulose) (HPC)); 100 % of control under setting [15]; 115 % of control (dose: 400.0 mg/kg/injection, schedule: Q01DX009 (ip), vehicle: Klucel (hydroxypropylcellulose) (HPC)). For the same compound, under setting [16], the T/C is 100 % of control.
